Data as given in patent US11702427B2 (priority 2018, dated 2023).

The compounds below were run on HBsAg (assay: HBsAg assay: inhibition of HBsAg in HepG2.2.15 cells (CLIA immunoassay of supernatant)). Details: Hepatitis B virus, HepG2.2.15, 144 h, read-out: sAg EC50, HepG2.2.15 cells; supernatant collected at day 6 after exposure; HBsAg chemiluminescence immunoassay.
Format: cell-based, hepatitis B virus (HBV)
Protocol: Inhibition of HBsAg was determined in HepG2.2.15 cells. Cells were maintained in culture medium containing 10% fetal calf serum, […], Glutamine, penicillin/streptomycin. Cells were seeded in 96-well collagen-coated plate at a density of 30,000 cells/well. Serially diluted compounds were added to cells next day at the final DMSO concentration of 0.5%. Cells were incubated with compounds for 2-3 days, after which medium was removed. Fresh medium containing compounds was added to cells for additional 3-4 days. At day 6 after exposure of compounds, supernatant was collected, the HBsAg immunoassay (microplate-based chemiluminescence immunoassay kits, CLIA, Autobio Diagnosics Co., Zhengzhou, China, Catalog #CL0310-2) was used to determine the level of HBsAg according to manufactory instruction. Dose-response curves were generated and the EC50 value (effective concentrations that achieved 50% inhibitory effect) were determined using XLfit software. In addition, cells can be seeded at a density of 5,000 cells/well for determination of cell viability in the presence and absence of compounds by using CellTiter-Glo reagent (Promega). Tables 1-3 show EC50 values obtained by the HBsAg assay for selected compounds.

| Compound | EC50 |
| --- | --- |
| COCCCOc1cc2c(cc1OC)-c1[nH]c(=O)c(C(=O)O)cc1C(C)(C(C)C)C2 (stereo not drawn) [Example 6, 5-Isopropyl-9-methoxy-8-(3-methoxypropoxy)-5-methyl-2-oxo-1,6-dihydrobenzo[h]quinoline-3-carboxylic acid] | 44 nM |
| COCCCOc1cc2c(cc1Cl)-c1[nH]c(=O)c(C(=O)O)cc1C(C)(C(C)C)C2 (stereo not drawn) [Example 9, 9-Chloro-5-isopropyl-8-(3-methoxypropoxy)-5-methyl-2-oxo-1,6-dihydrobenzo[h]quinoline-3-carboxylic acid] | 31 nM |
| COCCCOc1cc2c(cc1OC)-c1nc(OC)c(C(=O)O)cc1C(C(C)C)C2 (stereo not drawn) [Example 12, 5-Isopropyl-2,9-dimethoxy-8-(3-methoxypropoxy)-5,6-dihydrobenzo[h]quinoline-3-carboxylicacid] | 1200 nM |
| COCCCOc1cc2c(cc1OC)-c1[nH]c(=O)c(C(=O)O)c(O)c1C(C(C)C)C2 (stereo not drawn) [Example 13, 4-Hydroxy-5-isopropyl-9-methoxy-8-(3-methoxypropoxy)-2-oxo-1,2,5,6-tetrahydrobenzo[h]quinoline-3-carboxylicacid] | 6 nM |
| COCCCOc1cc2c(cc1Cl)-c1[nH]c(=O)c(C(=O)O)c(O)c1C(C)(C(C)C)C2 (stereo not drawn) [Example 14, 9-Chloro-4-hydroxy-5-isopropyl-8-(3-methoxypropoxy)-5-methyl-2-oxo-1,2,5,6-tetrahydrobenzo[h]quinoline-3-carboxylic acid] | 62 nM |

Same assay, conditions: read-out: sAg EC50; HepG2.2.15 cells; supernatant collected at day 6 after exposure; HBsAg chemiluminescence immunoassay

| Compound | EC50 |
| --- | --- |
| COCCCOc1cc2c(nc1OC)-c1[nH]c(=O)c(C(=O)O)c(O)c1C(C(C)C)C2 (single isomer, unassigned) [Example 34, 4-Hydroxy-5-isopropyl-9-methoxy-8-(3-methoxypropoxy)-2-oxo-1,2,5,6-tetrahydro-1,10-phenanthroline-3-carboxylic acid] | 3 nM |
| COCCCOc1cc2c(nc1OC)-c1[nH]c(=O)c(C(=O)O)c(O)c1C(C(C)C)C2 (single isomer, unassigned) [Example 35, 4-Hydroxy-5-isopropyl-9-methoxy-8-(3-methoxypropoxy)-2-oxo-1,2,5,6-tetrahydro-1,10-phenanthroline-3-carboxylic acid] | 150 nM |
| COCCCOc1cc2c(nc1OC)-c1[nH]c(=O)c(C(=O)O)c(O)c1C(C(C)(C)C)C2 (single isomer, unassigned) [Example 37, 5-(tert-Butyl)-4-hydroxy-9-methoxy-8-(3-methoxypropoxy)-2-oxo-1,2,5,6-tetrahydro-1,10-phenanthroline-3-carboxylic acid] | 1 nM |
| COCCCOc1cc2c(nc1OC)-c1[nH]c(=O)c(C(=O)O)c(O)c1C(C(C)(C)C)C2 (single isomer, unassigned) [Example 38, 5-(tert-Butyl)-4-hydroxy-9-methoxy-8-(3-methoxypropoxy)-2-oxo-1,2,5,6-tetrahydro-1,10-phenanthroline-3-carboxylic acid] | 35 nM |
| CCOc1nc2c(cc1OCCCOC)CC(C(C)C)c1c-2[nH]c(=O)c(C(=O)O)c1O (single isomer, unassigned) [Example 40, 9-Ethoxy-4-hydroxy-5-isopropyl-8-(3-methoxypropoxy)-2-oxo-1,2,5,6-tetrahydro-1,10-phenanthroline-3-carboxylic acid] | 87 nM |
| CCOc1nc2c(cc1OCCCOC)CC(C(C)C)c1c-2[nH]c(=O)c(C(=O)O)c1O (single isomer, unassigned) [Example 41, 9-Ethoxy-4-hydroxy-5-isopropyl-8-(3-methoxypropoxy)-2-oxo-1,2,5,6-tetrahydro-1,10-phenanthroline-3-carboxylic acid] | 1 nM |
| COCCCOc1cc2c(nc1OC)-c1[nH]c(=O)c(C(=O)O)cc1C(C(C)C)C2 (single isomer, unassigned) [Example 44, 5-Isopropyl-9-methoxy-8-(3-methoxypropoxy)-2-oxo-1,2,5,6-tetrahydro-1,10-phenanthroline-3-carboxylic acid] | 2 nM |
| COCCCOc1cc2c(nc1OC)-c1[nH]c(=O)c(C(=O)O)cc1C(C(C)C)C2 (single isomer, unassigned) [Example 45, 5-Isopropyl-9-methoxy-8-(3-methoxypropoxy)-2-oxo-1,2,5,6-tetrahydro-1,10-phenanthroline-3-carboxylic acid] | 16 nM |
| COCCCOc1cc2c(nc1OC)-c1[nH]c(=O)c(C(=O)O)cc1C(C(C)(C)C)C2 (single isomer, unassigned) [Example 47, 5-(tert-Butyl)-9-methoxy-8-(3-methoxypropoxy)-2-oxo-1,2,5,6-tetrahydro-1,10-phenanthroline-3-carboxylic acid] | 1 nM |
| COCCCOc1cc2c(nc1OC)-c1[nH]c(=O)c(C(=O)O)cc1C(C(C)(C)C)C2 (single isomer, unassigned) [Example 48, 5-(tert-Butyl)-9-methoxy-8-(3-methoxypropoxy)-2-oxo-1,2,5,6-tetrahydro-1,10-phenanthroline-3-carboxylic acid] | 42 nM |
| COCCCOc1cc2c(nc1OC)-c1[nH]c(=O)c(C(N)=O)c(O)c1C(C(C)(C)C)C2 (single isomer, unassigned) [Example 60, 5-(tert-Butyl)-4-hydroxy-9-methoxy-8-(3-methoxypropoxy)-2-oxo-1,2,5,6-tetrahydro-1,10-phenanthroline-3-carboxamide] | 2 nM |
| COCCCOc1cc2c(nc1OC)-c1[nH]c(=O)c(C(N)=O)c(O)c1C(C(C)(C)C)C2 (single isomer, unassigned) [Example 61, 5-(tert-Butyl)-4-hydroxy-9-methoxy-8-(3-methoxypropoxy)-2-oxo-1,2,5,6-tetrahydro-1,10-phenanthroline-3-carboxamide] | 300 nM |
| COCCCOc1cc2c(nc1Cl)-c1[nH]c(=O)c(C(=O)O)c(O)c1C(C(C)C)CO2 (single isomer, unassigned) [Example 75, 2-Chloro-8-hydroxy-7-isopropyl-3-(3-methoxypropoxy)-10-oxo-6,7,10,11-tetrahydrooxepino[3,2-b:4,5-b′]dipyridine-9-carboxylic acid] | 22 nM |
| COCCCOc1cc2c(nc1Cl)-c1[nH]c(=O)c(C(=O)O)c(O)c1C(C(C)C)CO2 (single isomer, unassigned) [Example 76, 2-Chloro-8-hydroxy-7-isopropyl-3-(3-methoxypropoxy)-10-oxo-6,7,10,11-tetrahydrooxepino[3,2-b:4,5-b′]dipyridine-9-carboxylic acid] | 560 nM |
| COCCCOc1cc2c(nc1Cl)-c1[nH]c(=O)c(C(=O)O)c(O)c1C(C(C)(C)C)CO2 (single isomer, unassigned) [Example 77, 7-(tert-Butyl)-2-chloro-8-hydroxy-3-(3-methoxypropoxy)-10-oxo-6,7,10,11-tetrahydrooxepino[3,2-b:4,5-b′]dipyridine-9-carboxylic acid] | 6 nM |
| COCCCOc1cc2c(nc1Cl)-c1[nH]c(=O)c(C(=O)O)c(O)c1C(C(C)(C)C)CO2 (single isomer, unassigned) [Example 78, 7-(tert-Butyl)-2-chloro-8-hydroxy-3-(3-methoxypropoxy)-10-oxo-6,7,10,11-tetrahydrooxepino[3,2-b:4,5-b′]dipyridine-9-carboxylicacid] | 6000 nM |
| CCc1nc2c(cc1OCCCOC)OCC(C(C)(C)C)c1c-2[nH]c(=O)c(C(=O)O)c1O (single isomer, unassigned) [Example 80, 7-(tert-Butyl)-2-ethyl-8-hydroxy-3-(3-methoxypropoxy)-10-oxo-6,7,10,11-tetrahydrooxepino[3,2-b:4,5-b′]dipyridine-9-carboxylic acid] | 7000 nM |
| CCc1nc2c(cc1OCCCOC)OCC(C(C)(C)C)c1c-2[nH]c(=O)c(C(=O)O)c1O (single isomer, unassigned) [Example 81, 7-(tert-Butyl)-2-ethyl-8-hydroxy-3-(3-methoxypropoxy)-10-oxo-6,7,10,11-tetrahydrooxepino[3,2-b:4,5-b′]dipyridine-9-carboxylic acid] | 4 nM |
| COCCCOc1cc2c(nc1C1CC1)-c1[nH]c(=O)c(C(=O)O)c(O)c1C(C(C)(C)C)CO2 (single isomer, unassigned) [Example 82, 7-(tert-Butyl)-2-cyclopropyl-8-hydroxy-3-(3-methoxypropoxy)-10-oxo-6,7,10,11-tetrahydrooxepino[3,2-b:4,5-b′]dipyridine-9-carboxylic acid] | 30000 nM |
| COCCCOc1cc2c(nc1C1CC1)-c1[nH]c(=O)c(C(=O)O)c(O)c1C(C(C)(C)C)CO2 (single isomer, unassigned) [Example 83, 7-(tert-Butyl)-2-cyclopropyl-8-hydroxy-3-(3-methoxypropoxy)-10-oxo-6,7,10,11-tetrahydrooxepino[3,2-b:4,5-b′]dipyridine-9-carboxylic acid] | 15 nM |
| COCCCOc1cc2c(nc1OC)-c1[nH]c(=O)c(C(=O)O)c(O)c1C(C(C)(C)C)CO2 (single isomer, unassigned) [Example 85, 7-(tert-Butyl)-8-hydroxy-2-methoxy-3-(3-methoxypropoxy)-10-oxo-6,7,10,11-tetrahydrooxepino[3,2-b:4,5-b′]dipyridine-9-carboxylic acid] | 66 nM |
| COCCCOc1cc2c(nc1OC)-c1[nH]c(=O)c(C(=O)O)c(O)c1C(C(C)(C)C)CO2 (single isomer, unassigned) [Example 86, 7-(tert-Butyl)-8-hydroxy-2-methoxy-3-(3-methoxypropoxy)-10-oxo-6,7,10,11-tetrahydrooxepino[3,2-b:4,5-b′]dipyridine-9-carboxylic acid] | 30000 nM |
